“Also recorded” adds a separate entry of the source.

These results are taken from patent US20070202165A1, “Method for a supplemental dietary composition having a multi-phase dissolution profile” (priority 2006, published 2007).

Type in all cases: physicochemical
Series [1] is described as follows: Kinetic dissolution experiment: samples filtered at 1 and 5 minutes. The following applies: for weight of unfiltered sample: 1 g in 50 mL water, Whateman 41 filter. As for the experimental part: In order to expand on the results of the aforenoted experiments, a kinetic experiment was conducted to examine the change in the dissolution rate over short time periods.
1 g of sample was added to 50 mL water in a flask with a magnetic stir bar on a stirrer set at constant speed. Separate samples were filtered at 1 and 5 minutes. The pre-weighed filter papers (Whateman 41, particle retention 20-25 μm) were allowed to dry and the amount of sample remaining on the filter paper was determined.

Series [2] is described as follows: Time to dissolve in water, estimated by visual inspection, regular vs fine-milled ingredients. The following applies: for Time taken to dissolve: 100 mL water, magnetic stirring. On the procedure:
In order to determine the effect of fine-milling on the dissolution rate, initial testing was performed to examine the rate of dissolution of common supplemental dietary ingredients. For the purposes of this disclosure, the term “regular” as used herein makes reference to non-fine-milled particles. 100 mL of water was placed into a 250 mL beaker and a magnetic stirrer bar was added to the beaker. The beaker was then placed on a magnetic stirrer was set to constant speed. […] The time required to dissolve was estimated by visual inspection. Equal amounts of the fine-milled ingredients were then added to the water and the time required to dissolve was estimated by visual inspection.

The nature of series [3]: Solubility test with filtration: amount dissolved until saturated and dry powder remaining on filter paper. The following applies: gravity filtration, filter paper dried.
Method: A second experiment relating to fine-milling and potential increase in bioavailability was conducted. In order to test the capacity of fine-milling to improve the rate bioavailability of substances, a simple test was performed. The test was conceived to mimic various elements involved in the processes of oral administration of a nutritional supplement. The key parameters involved were rate of dissolution and solubility, as it is understood that an ingested nutrient must be dissolved or reduced to a bio-transportable size in order to be utilized biochemically by the body.
The rates of dissolution and solubility of regular common nutritional supplements were compared to fine-milled versions within a fixed time.
100 mL of water was added to a 250 mL beaker and a magnetic stirring bar was placed in the beaker. The beaker was placed on a magnetic stirrer and stirred with low speed. 1 g of a given supplemental dietary ingredient powder was added incrementally to the beaker with the stirring speed constant until the solution visually appeared saturated. […]
The ‘Fold Change’ represents the change in the amount of substance unable to pass through the filter as calculated by the amount of unfiltered regular substance divided by the amount of unfiltered fine-milled substance and represents the potential theoretical improvement in bioavailability.

On to `CN(CC(=O)O)C(=N)N.O` [Creatine Monohydrate], for which the “Time to filter, fine-milled compared with regular samples (in words)” value in series [1] (1- and 5-minute intervals) is recorded as “consistently longer for the fine-milled samples”. In addition, the “weight of unfiltered sample” value in series [1] (Fine-milled, filtered at 1-minute interval, listed as Creatine monohydrate, Monohydrate) is recorded as 0.33 g; in series [1] (Fine-milled, filtered at 1-minute interval, listed as creatine, Monohydrate), 0.32 g; in series [1] (Fine-milled, filtered at 5-minute interval) it was 0.27 g; in series [1] (Regular, filtered at 1-minute interval, listed as Creatine monohydrate, Monohydrate), 0.32 g; in series [1] (Regular, filtered at 1-minute interval, listed as creatine, Monohydrate), 0.33 g; in series [1] (Regular, filtered at 5-minute interval) it was 0.40 g. The “Time taken to dissolve” value in series [2] (Powder type Fine-milled) and in series [2] (Powder type Regular (non-fine-milled)) was less than 5 min each time. In addition, in series [2] (fine-milled vs regular, Monohydrate), the “Dissolution of fine-milled compared with regular ingredient (in words)” value was “dissolved at the same rate in both the fine-milled and regular formats; also recorded: did not display a difference dependent on particle size”. For the same compound, the entries for the “Dry Powder On Filter” value in series [3] (Powder type Fine-milled) and in series [3] (Powder type Regular) were 0.01 g and 0.19 g, respectively.
